# Experimental data taken from patent US20260363244A1, “HERBICIDAL COMPOSITIONS COMPRISING URACILS” (BASF SE, priority 2022, published 2026).
# Read-outs that look alike come from different tables or passages of the source.
# Experiments:
# Type in all cases: in vivo
# [1] = test system: Avena fatua; assay: greenhouse post-emergence herbicidal activity, AVEFA; settings: read-out: % activity (solo application); for activity at 2 g/ha / activity at 4 g/ha: 168 h, GS 12-16, 7 DAT; for activity at 2 g/ha: 2 gai/ha; for activity at 4 g/ha: 4 gai/ha; for activity at 0.5 g/ha: 0.5 gai/ha
# Experimental: (§1) The following examples serve to illustrate the invention.
# (§2) The culture containers used were plastic pots containing loamy sand with approximately 3.0% of humus as substrate. The seeds of the test plants were sown separately for each species.
# (§3) For the post-emergence treatment, the test plants were grown to a plant height of from 3 to 15 cm, depending on the plant habit, and only then treated with the active compounds which had been suspended or emulsified in water. To this end, the test plants were either sown directly, and grown in the same containers, or they were first grown separately as seedlings and transplanted into the test containers a few days prior to treatment.
# (§4) Depending on the species, the plants were kept at 10-25 °C and 20-35 °C, respectively. The test period extended over 2 to 4 weeks. During this time, the plants were tended and their response to the individual treatments was evaluated.
# (§5) Evaluation was carried out using a scale from 0 to 100. 100 means no emergence of the plants, or complete destruction of at least the above-ground parts, and 0 means no damage or normal course of growth. A good herbicidal activity is given at values of at least 70, and very good herbicidal activity is given at values of at least 85.
# (§6) The respective stated components A and B, and if appropriate, C were formulated as a 5% by weight strength emulsion concentrate and, with addition of the amount of solvent system, introduced into the spray liquor used for applying the active compound. In the examples, the solvent used was water.
# (§7) In the examples below, using the method of S. R. Colby (1967) “Calculating synergistic and antagonistic responses of herbicide combinations”, Weeds 15, p. 22ff., the value E, which is expected if the activity of the individual active compounds is only additive, was calculated.
# (§8) E=X+Y−(X·Y/100) • where • X=percent activity using active compound A at an application rate a; • Y=percent activity using active compound B at an application rate b; • E=expected activity (in %) by A+B at application rates a+b.
# (§9) The plants used in the greenhouse experiments were of the following species
# (§10) In this context, a.i. means active ingredient, based on 100% active ingredient.
# (§11) As indicated the application was post emergent (POST) at the respective growth stage (GS) of the weed.
# (§12) Assessment was at the indicated days after treatment (DAT).
# [2] = test system: Commenline benghalensis; assay: greenhouse post-emergence herbicidal activity, COMBE; settings: read-out: % activity (solo application); for activity at 0.5 g/ha: 0.5 gai/ha
# Experimental: as §1, §2, §3, §4, §5, §6, §7, §8, §9, §10, §11, §12
# [3] = test system: Digitaria sanguinales; assay: greenhouse post-emergence herbicidal activity, DIGSA; settings: for activity at […]: 0.25 gai/ha
# Experimental: as §1, §2, §3, §4, §5, §6, §7, §8, §9, §10, §11, §12
# [4] = test system: Setaria faberi; assay: greenhouse post-emergence herbicidal activity, SETFA; settings: Setaria faberi, post-emergence, read-out: % activity (solo application); for activity at […]: 0.25 gai/ha; for activity at 2 g/ha: 2 gai/ha; for activity at 4 g/ha: 4 gai/ha; for activity at 0.5 g/ha: 0.5 gai/ha
# Experimental: as §1, §2, §3, §4, §5, §6, §7, §8, §9, §10, §11, §12
# [5] = test system: Amaranthus tamariscinus; assay: greenhouse post-emergence herbicidal activity, AMATA; settings: 0.25 gai/ha, read-out: % activity (solo application)
# Experimental: as §1, §2, §3, §4, §5, §6, §7, §8, §9, §10, §11, §12
# [6] = test system: Echinocloa crus-galli; assay: greenhouse post-emergence herbicidal activity, ECHCG; settings: for % activity: solo application, ECHCG, GS 11-33, 20 DAT
# Experimental: as §1, §2, §3, §4, §5, §6, §7, §8, §9, §10, §11, §12
# [7] = test system: Abutilon theophrasti; assay: greenhouse post-emergence herbicidal activity, ABUTH; settings: read-out: % activity (solo application); for activity at 2 g/ha: 2 gai/ha
# Experimental: as §1, §2, §3, §4, §5, §6, §7, §8, §9, §10, §11, §12
# [8] = test system: Kochia scoparia; assay: greenhouse post-emergence herbicidal activity, KCHSC; settings: for % activity: solo application, KCHSC
# Experimental: as §1, §2, §3, §4, §5, §6, §7, §8, §9, §10, §11, §12
# [9] = test system: Eleusine indica; assay: greenhouse post-emergence herbicidal activity, ELEIN; settings: 480 h, GS 12-16, 20 DAT, 0.25 gai/ha, read-out: % activity (solo application)
# Experimental: as §1, §2, §3, §4, §5, §6, §7, §8, §9, §10, §11, §12
# [10] = test system: Setaria viridis; assay: greenhouse post-emergence herbicidal activity, SETVI; settings: for activity at 1 g/ha: 1 gai/ha; for % activity: solo application, SETVI, GS 11-33, 8 DAT, use rate 0.8 gai/ha
# Experimental: as §1, §2, §3, §4, §5, §6, §7, §8, §9, §10, §11, §12
# [11] = test system: Sorghum halepense; assay: greenhouse post-emergence herbicidal activity, SORHA; settings: solo application, SORHA, GS 11-33, 20 DAT, use rate 1.6 gai/ha
# Experimental: as §1, §2, §3, §4, §5, §6, §7, §8, §9, §10, §11, §12
# [12] = test system: Lolium multiflorum; assay: greenhouse post-emergence herbicidal activity, LOLMU; settings: solo application, LOLMU, GS 11-33, 7 DAT, use rate 1.6 gai/ha
# Experimental: as §1, §2, §3, §4, §5, §6, §7, §8, §9, §10, §11, §12
# [13] = test system: Brachiaria decumbens; assay: greenhouse post-emergence herbicidal activity, BRADC; settings: solo application, BRADC, GS 11-33, 20 DAT, use rate 1.6 gai/ha
# Experimental: as §1, §2, §3, §4, §5, §6, §7, §8, §9, §10, §11, §12
# [14] = Digitaria, post-emergence, 480 h, GS 12-16, 20 DAT, read-out: % activity (solo application)
# [15] = 480 h, GS 12-16, 20 DAT, 1 gai/ha
structure (smiles),measurement,setting,value
"C=C[C@]1(C(=O)N[C@H]2C=C[C@@H](C(=O)OC)C2)CC(c2cc(F)cc(F)c2)=NO1 [(II.5.cis.B), methyl (1S,4R)-4-[[(5S)-3-(3,5-difluorophenyl)-5-vinyl-4H-isoxazole-5-carbonyl]amino]cyclopent-2-ene-1-carboxylate]",activity at 2 g/ha,[1],40%
same,activity at […],"[2]; 144 h, GS 12-16, 6 DAT, 0.25 gai/ha",40%
same,activity at 0.5 g/ha,"[2]; 144 h, GS 12-16, 6 DAT",55%
same,activity at 0.5 g/ha,"[2]; 480 h, GS 12-16, 20 DAT",70%
same,activity at […],[3]; [14],35%
same,activity at […],"[4]; 144 h, GS 12-16, 6 DAT",40%
same,activity at […],"[4]; 480 h, GS 12-16, 20 DAT",30%
same,activity at […],"[5]; 144 h, GS 12-16, 6 DAT",45%
same,activity at […],"[5]; 480 h, GS 12-16, 20 DAT",40%
same,activity at […],"[6]; Echinochloa crus-galli, post-emergence, 144 h, GS 12-16, 6 DAT, 0.25 gai/ha, read-out: % activity (solo application)",15%
"C=C[C@]1(C(=O)N[C@@H]2CO[C@H](C(=O)OC)C2)CC(c2cc(F)cc(F)c2)=NO1 [(II.1.cis.A), methyl (2S,4S)-4-[[(5S)-3-(3,5-difluorophenyl)-5-vinyl-4H-isoxazole-5-carbonyl]amino]tetrahydrofuran-2-carboxylate]",activity at 2 g/ha,[1],20%
same,activity at 4 g/ha,[1],25%
same,activity at 2 g/ha,"[4]; 168 h, GS 12-16, 7 DAT",70%
same,activity at 4 g/ha,"[4]; 168 h, GS 12-16, 7 DAT",70%
same,activity at 2 g/ha,"[4]; 504 h, GS 12-16, 21 DAT",75%
same,activity at 4 g/ha,"[4]; 504 h, GS 12-16, 21 DAT",85%
same,activity at 2 g/ha,"[7]; 168 h, GS 12-16, 7 DAT",15%
same,activity at 2 g/ha,"[7]; 504 h, GS 12-16, 21 DAT",0%
"C=C[C@]1(C(=O)N[C@H]2CO[C@@H](C(=O)OC)C2)CC(c2cc(F)cc(F)c2)=NO1 [(II.1.cis.B), methyl (2R,4R)-4-[[(5S)-3-(3,5-difluorophenyl)-5-vinyl-4H-isoxazole-5-carbonyl]amino]tetrahydrofuran-2-carboxylate]",activity at 2 g/ha,[1],10%
same,activity at 4 g/ha,[1],20%
same,activity at 0.5 g/ha,"[8]; Bassia scoparia, post-emergence, 480 h, GS 12-16, 20 DAT, 0.5 gai/ha, read-out: % activity (solo application)",15%
same,activity at […],[9],20%
same,activity at […],[3]; [14],20%
same,activity at 0.5 g/ha,"[3]; Digitaria, post-emergence, 480 h, GS 12-16, 20 DAT, 0.5 gai/ha, read-out: % activity (solo application)",50%
same,activity at […],"[4]; 144 h, GS 12-16, 6 DAT",35%
same,activity at 0.5 g/ha,"[4]; 144 h, GS 12-16, 6 DAT",55%
same,activity at […],"[4]; 480 h, GS 12-16, 20 DAT",20%
same,activity at 0.5 g/ha,"[4]; 480 h, GS 12-16, 20 DAT",25%
same,activity at […],"[5]; 144 h, GS 12-16, 6 DAT",15%
same,activity at 0.5 g/ha,"[7]; 144 h, GS 12-16, 6 DAT, 0.5 gai/ha",0%
same,activity at 0.5 g/ha,"[10]; Setaria viridis, post-emergence, 480 h, GS 12-16, 20 DAT, 0.5 gai/ha, read-out: % activity (solo application)",50%
"C[C@]1(C(=O)N[C@H]2C=C[C@@H](C(=O)O)C2)CC(c2cc(F)cc(F)c2)=NO1 [(II.8.cis.B), (1S,4R)-4-[[(5R)-3-(3,5-difluorophenyl)-5-methyl-4H-isoxazole-5-carbonyl]amino]cyclopent-2-ene-1-carboxylic acid]",activity at 0.5 g/ha,"[1]; 144 h, GS 12-16, 6 DAT",20%
same,activity at 2 g/ha,[1],30%
same,activity at 4 g/ha,[1],30%
same,activity at 0.5 g/ha,"[1]; 480 h, GS 12-16, 20 DAT",15%
same,activity at 1 g/ha,[1]; [15],65%
same,activity at 1 g/ha,"[8]; Bassia scoparia, post-emergence, 480 h, GS 12-16, 20 DAT, 1 gai/ha, read-out: % activity (solo application)",20%
same,activity at 0.5 g/ha,"[2]; 144 h, GS 12-16, 6 DAT",15%
same,activity at 1 g/ha,"[2]; 144 h, GS 12-16, 6 DAT, 1 gai/ha",40%
same,activity at 0.5 g/ha,"[4]; 144 h, GS 12-16, 6 DAT",20%
same,activity at 0.5 g/ha,"[4]; 480 h, GS 12-16, 20 DAT",30%
same,activity at 1 g/ha,[4]; [15],50%
same,activity at 1 g/ha,"[6]; Echinochloa crus-galli, post-emergence, 144 h, GS 12-16, 6 DAT, 1 gai/ha, read-out: % activity (solo application)",70%
same,activity at 1 g/ha,"[10]; Setaria viridis, post-emergence, 144 h, GS 12-16, 6 DAT, read-out: % activity (solo application)",10%
same,activity at 1 g/ha,"[10]; Setaria viridis, post-emergence, 480 h, GS 12-16, 20 DAT, read-out: % activity (solo application)",20%
CCOC(=O)COc1ncccc1Oc1nc(-n2c(=O)cc(C(F)(F)F)n(C)c2=O)c(F)cc1Br [I.9],% activity,"[8]; GS 11-33, 7 DAT, use rate 0.4 gai/ha",60%
same,% activity,[6]; use rate 0.4 gai/ha,40%
same,% activity,[10],75%
CCOC(=O)COc1ncccc1Oc1nc(-n2c(=O)cc(C(F)(F)F)n(C)c2=O)c(F)cc1Cl [I.6],% activity,"[8]; GS 11-33, 20 DAT, use rate 0.8 gai/ha",55%
same,% activity,[11],10%
same,% activity,"[3]; solo application, DIGSA, GS 11-33, 20 DAT, use rate 1.6 gai/ha",50%
same,% activity,[6]; use rate 1.6 gai/ha,45%
same,% activity,[12],15%
same,% activity,[13],40%
same,% activity,[10],30%
